Results taken from patent publication US6627651B1, “Cyclic compounds and uses thereof” (Takeda Chemical Industries, Ltd., priority 1999, dated 2003).

How the values were obtained:
human CCR5 = target: T1, human CCR5 (Homo sapiens, UniProt P51681); assay: CCR5-binding inhibition: [125I]-RANTES binding to CHO/CCR5 cells; conditions: test compound 1 μM; ligand [125I]-RANTES 100 pM; CHO/CCR5 strains; room temperature, 30 minutes
T1 construct: expressed in transfected cells
Protocol: After CHO-K1 cells, which were grown in a 750-ml, tissue culture flask (Beckton, Dickinson and Company) using Ham F12 medium (Nihon Pharmaceutical Co., Ltd.) containing 10% fetal calf serum (Life Technologies Oriental, Inc.), were removed from the flask with 0.5/L trypsin-0.2 g/L EDTA (Life Technologies Oriental, Inc.), the cells were washed with PBS (Life Technologies Oriental, Inc.), were centrifuged (1000 rpm, 5 minutes) and were suspended in PBS. Next, DNA was introduced into the cells by the use of Gene Pulser (Bio-Rad Laboratories Inc.) under the following conditions. In other words, 8×10^6 cells and 10 μg human CCR5 expression plasmid pCKR5 were added into a cuvette with a 0.4-cm gap, and the cells were electroporated at 0.25 kV under a capacitance of 960 μF. Subsequently, the cells were transferred to Ham F12 medium containing 10% fetal calf serum, and were cultivated for 24 hours. The cells were then removed from the flask again for centrifugation, were then suspended in Ham F12 medium containing 10% fetal serum albumin containing geneticin (Life Technologies Oriental, Inc.) at a final concentration of 500 μg/ml, were diluted to 10^4 cells/ml and were seeded into 96-well plates (Beckton, Dickinson and Company) to obtain geneticin-resistant strains.
Next, after the thus-obtained geneticin-resistant strains were cultivated in a 96-well plate (Beckton, Dickinson and Company), cells expressing CCR5 were selected from the resistant strains. In other words, the binding reaction was carried out at room temperature for 40 minutes in an assay buffer (Ham F12 medium containing 0.5% BSA and 20 mM HEPES (Wako Pure Chemical Industries, Ltd.)) that is supplemented with 200 pM [^125I]-RANTES (Amersham plc) as a ligand, and the cells were washed with ice-cold PBS, were then stirred after adding 50 μl/well of 1M NaOH and were counted for radioactivity in a γ-counter to select CHO/CCR5 strains, the cells to which the ligand was specifically bound.
CHO/CCR5 strains were seeded into 96-well microplates at a density of 5×10^4 cells/well, and were cultivated for 24 hours. After the culture fluid was removed by suction, the assay buffer containing a test compound (1 μM) was added to each well, and a ligand [^125I]-RANTES (Amersham Corporation) was added to a final concentration of 100 pM, after which the reaction was carried out at room temperature for 30 minutes. Next, after the assay buffer was removed by suction, the cells were washed twice with ice-cold PBS. Subsequently, 200 μl of MicroScint-20 (Packard Industry Company, Inc.) was added to each well, which was counted for radioactivity in a Top Count (Packard Industry Company, Inc.).
Percentages of CCR5-binding inhibition by test compounds were determined according to the method described above.

T1 sequence (P51681 whole entry): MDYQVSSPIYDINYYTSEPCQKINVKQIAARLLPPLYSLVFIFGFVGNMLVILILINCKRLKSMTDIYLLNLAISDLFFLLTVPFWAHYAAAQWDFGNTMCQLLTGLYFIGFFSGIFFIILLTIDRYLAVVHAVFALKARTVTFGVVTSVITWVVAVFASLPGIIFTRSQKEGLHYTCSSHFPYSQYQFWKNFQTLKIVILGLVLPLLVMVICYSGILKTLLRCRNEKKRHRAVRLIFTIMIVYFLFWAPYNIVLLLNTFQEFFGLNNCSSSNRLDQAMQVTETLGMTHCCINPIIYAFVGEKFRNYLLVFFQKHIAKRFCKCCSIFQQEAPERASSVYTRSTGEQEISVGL

Row | Compound | Inhibition of binding (%) (human CCR5) | melting point | inhibition at 1 µM (human CCR5)
1 | CCCOc1ccc(CCOc2ccc3c(c2)C=C(C(=O)Nc2ccc(CN(C)C4CCOCC4)cc2)CCS3(=O)=O)cc1 [Compound 19, N-[4-[N-methyl-N-(tetrahydropyran-4-yl)aminomethyl]phenyl]-7-[4-(propoxyphenethyl)oxy]-1,1-dioxo-2,3-dihydro-1-benzothiepine-4-carboxamide] | 86% | – | –
2 | CCCOc1cccc(COc2ccc3c(c2)C=C(C(=O)Nc2ccc(CN(C)C4CCOCC4)cc2)CCS3(=O)=O)c1 [Compound 20] | 94% | – | –
3 | CCCOc1ccccc1COc1ccc2c(c1)C=C(C(=O)Nc1ccc(CN(C)C3CCOCC3)cc1)CCS2(=O)=O [Compound 21, N-[4-[N-methyl-N-(tetrahydropyran-4-yl)aminomethyl]phenyl]-7-[(2-propoxybenzyl)oxy]-1,1-dioxo-2,3-dihydro-1-benzothiepine-4-carboxamide] | – | 190 to 192 °C | 98%
4 | Cc1ccc(-c2ccc3c(c2)C=C(C(=O)NC2CCN(C4CCOCC4)CC2)CCO3)cc1 [Compound 56, N-(1-(tetrahydropyran-4-yl)piperidin-4-yl)-7-(4-methylphenyl)-2,3-dihydro-1-benzooxepine-4-carboxamide] | – | 199 to 204 °C (dec.) | 74%
5 | Cc1ccc(-c2ccc3c(c2)C=C(C(=O)Nc2ccc(CC4=NCCN4)cc2)CCO3)cc1 [Compound 94] | 76% | – | –
6 | CCCOc1ccc(COc2ccc3c(c2)C=C(C(=O)Nc2ccc(CN(C)C4CCOCC4)cc2)CCS3(=O)=O)cc1 [Compound 100] | 89% | – | –
7 | CCCOCCOc1ccc(COc2ccc3c(c2)C=C(C(=O)Nc2ccc(CN(C)C4CCOCC4)cc2)CCS3(=O)=O)cc1 [Compound 108, N-[4-[[N-methyl-N-(tetrahydropyran-4-yl)amino]methyl]phenyl]-7-[[4-(2-propoxyethoxy)benzyl]oxy]-1,1-dioxo-2,3-dihydro-1-benzothiepine-4-carboxamide] | – | 175 to 176 °C | 86%
8 | CCCOc1ccc(CCCOc2ccc3c(c2)C=C(C(=O)Nc2ccc(CN(C)C4CCOCC4)cc2)CCS3(=O)=O)cc1 [Compound 121, N-[4-[[N-methyl-N-(tetrahydropyran-4-yl)amino]methyl]phenyl]-7-[3-(4-propoxyphenyl)propoxy]-1,1-dioxo-2,3-dihydro-1-benzothiepine-4-carboxamide] | – | 178 to 181 °C | 82%
